How the values were obtained:
[1] = tested on: Collagen-Induced Arthritis (CIA) Model in Rats; assay: In vivo efficacy in collagen-induced arthritis (CIA) model in rats; parameters: species or system Lewis rats; Mean arthritis score: scale not given here
Experimental: Experimental Example 4: In Vivo Efficacy in Collagen-Induced Arthritis (CIA) Model in Rats
A mixed emulsion of bovine type II collagen and incomplete Freund's adjuvant 1:1 was injected at the back and the tail tip (3 sites) in Lewis rats. After 14 days, the paw thickness and paw volume of the rats were measured, and the arthritis development was scored. The day before the administration was set as DO, the animals were grouped based on paw volume, and the test compounds (vehicle: 5% DMSO+5% solutol) were gavage administered once a day for two weeks. The paw thickness and paw volume of the rats were measured, and the arthritis development was scored.

[2] = Pharmacokinetic study in rats, gavage (PO) administration; format: in vivo; details: male, SD, rat, plasma; for AUC(0-t): po, gavage administration at 5 mg/kg, 0-24 h
Experimental: (§1) Experimental Example 3: Pharmacokinetic Studies
(§2) To study the pharmacokinetic characteristics of test compounds, the test compounds were administrated by intravenous (IV) and gavage (PO) routes to male SD rats. The dosage for IV administration was 1 mg/kg, and that for PO administration was 0.5-5 mg/kg. The vehicle is 10% DMSO: 10% solutol: 80% physiological saline, or 5% DMSO: 5% solutol: 90% physiological saline, or 10% DMSO: 60% PEG: 30% physiological saline. Blood was collected at various time points after administration. Plasma samples were analyzed by LC-MS/MS after protein precipitation process with acetonitrile.

[3] = Pharmacokinetic study in rats, intravenous (IV) administration; format: in vivo; details: male, SD, rat, plasma, IV administration at 1 mg/kg; for AUC(0-t): 0-24 h; for half-life: read-out: T½ (converted)
Experimental: as §1, §2

[4] = Pharmacokinetic study in Rhesus monkeys, gavage (PO) administration; format: in vivo; details: male, rhesus monkey, plasma, PO administration at 1 mg/kg; for AUC(0-t): 0-24 h; for half-life: read-out: T½ (converted)
Experimental: (§3) To study the pharmacokinetic characteristics of test compounds, the test compounds were administrated by a gavage (PO) route to male Rhesus monkeys. The dosage for PO administration was 1 mg/kg. Blood was collected at various time points after the PO administration. Plasma samples were analyzed by LC-MS/MS after protein precipitation process with acetonitrile. Pharmacokinetic parameters were calculated with a non-compartmental model by using WinNonlin 6.3 software.

[5] = Pharmacokinetic study in Rhesus monkeys, intravenous (IV) administration; format: in vivo; details: male, rhesus monkey, plasma, IV administration at 0.5 mg/kg
Experimental: as §3, with “an intravenous (IV)” for “a gavage (PO)”, “IV” for “PO”, “0.5” for “1”

[6] = biological target: hERG potassium channel (Homo sapiens (Human), UniProt Q12809); assay: Predictor hERG Fluorescence Polarization Assay; format: binding; details: tested at 3, 10 and 30 μM
Sequence of hERG potassium channel (Q12809 whole entry): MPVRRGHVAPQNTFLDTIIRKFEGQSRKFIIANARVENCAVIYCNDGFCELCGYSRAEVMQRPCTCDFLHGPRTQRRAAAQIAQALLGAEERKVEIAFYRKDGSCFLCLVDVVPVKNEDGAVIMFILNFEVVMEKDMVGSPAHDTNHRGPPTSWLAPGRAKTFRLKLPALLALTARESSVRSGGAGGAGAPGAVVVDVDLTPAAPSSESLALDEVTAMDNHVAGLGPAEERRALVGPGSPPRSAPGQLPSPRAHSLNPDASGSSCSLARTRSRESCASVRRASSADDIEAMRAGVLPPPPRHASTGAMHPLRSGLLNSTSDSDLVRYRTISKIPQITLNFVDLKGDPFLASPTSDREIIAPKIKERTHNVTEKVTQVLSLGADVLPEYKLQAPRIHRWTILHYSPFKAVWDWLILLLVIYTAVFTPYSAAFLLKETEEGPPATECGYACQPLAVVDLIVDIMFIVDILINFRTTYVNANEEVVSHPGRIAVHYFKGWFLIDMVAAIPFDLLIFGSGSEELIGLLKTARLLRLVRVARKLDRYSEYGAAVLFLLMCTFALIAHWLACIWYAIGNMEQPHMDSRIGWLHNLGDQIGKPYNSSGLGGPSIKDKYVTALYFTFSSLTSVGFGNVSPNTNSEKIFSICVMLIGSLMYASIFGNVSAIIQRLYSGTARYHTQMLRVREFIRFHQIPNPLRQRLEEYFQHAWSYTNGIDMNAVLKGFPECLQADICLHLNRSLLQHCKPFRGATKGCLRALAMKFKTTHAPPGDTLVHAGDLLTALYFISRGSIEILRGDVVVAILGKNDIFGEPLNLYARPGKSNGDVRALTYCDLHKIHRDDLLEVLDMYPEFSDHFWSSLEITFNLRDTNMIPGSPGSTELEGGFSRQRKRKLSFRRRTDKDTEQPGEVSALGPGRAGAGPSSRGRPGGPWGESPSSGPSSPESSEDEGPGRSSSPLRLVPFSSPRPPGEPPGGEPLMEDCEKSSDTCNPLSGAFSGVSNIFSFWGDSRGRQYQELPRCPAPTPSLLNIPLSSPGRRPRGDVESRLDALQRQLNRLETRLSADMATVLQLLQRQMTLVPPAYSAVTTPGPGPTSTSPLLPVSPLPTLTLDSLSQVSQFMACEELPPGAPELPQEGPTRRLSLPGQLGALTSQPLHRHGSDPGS
Experimental: Experimental Example 2: Safety Test
The effect of test compounds on hERG potassium channel were determined using Predictor™ hERG Fluorescence Polarization Assay at concentrations of 3, 10, and 30 μM.

[7] = biological target: CYP1A2 (Homo sapiens (Human), UniProt P05177); assay: CYP450 enzyme test, P450-Glo screening system, CYP1A2; format: in vitro ADME; details: human
Sequence of CYP1A2 (P05177 whole entry): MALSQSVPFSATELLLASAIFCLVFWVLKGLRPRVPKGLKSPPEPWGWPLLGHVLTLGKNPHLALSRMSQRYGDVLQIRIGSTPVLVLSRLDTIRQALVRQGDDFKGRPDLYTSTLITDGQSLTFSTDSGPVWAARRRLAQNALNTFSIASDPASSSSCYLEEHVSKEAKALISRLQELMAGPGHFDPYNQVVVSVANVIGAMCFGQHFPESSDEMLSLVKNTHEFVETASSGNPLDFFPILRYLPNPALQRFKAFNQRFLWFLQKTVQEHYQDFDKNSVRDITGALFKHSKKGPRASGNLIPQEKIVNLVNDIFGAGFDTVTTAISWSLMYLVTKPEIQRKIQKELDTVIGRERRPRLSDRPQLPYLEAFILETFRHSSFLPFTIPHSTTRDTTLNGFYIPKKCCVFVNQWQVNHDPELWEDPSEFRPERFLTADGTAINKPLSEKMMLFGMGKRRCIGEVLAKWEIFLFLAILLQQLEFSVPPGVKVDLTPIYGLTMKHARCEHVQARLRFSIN
Excerpt: (§4) CYP450 is the most important enzymatic system in drug metabolism. The enzymes involved in the metabolism interact with a drug, and mainly include CYP1A2, CYP2D6 and CYP3A4. In the CYP450 enzyme test, P450-Glo™ CYP1A2 screening system was employed to determine the inhibitory activity of compounds on CYP1A2 and CYP3A4. The Vivid® CYP2D6 Cyan screening kit was employed to determine the inhibitory activity of test compounds on CYP2D6.

[8] = biological target: JAK3 (Homo sapiens (Human), UniProt P52333); assay: JAK3 enzymatic inhibition assay (ADP-Glo luminescence); format: biochemical
Sequence of JAK3 (P52333 whole entry): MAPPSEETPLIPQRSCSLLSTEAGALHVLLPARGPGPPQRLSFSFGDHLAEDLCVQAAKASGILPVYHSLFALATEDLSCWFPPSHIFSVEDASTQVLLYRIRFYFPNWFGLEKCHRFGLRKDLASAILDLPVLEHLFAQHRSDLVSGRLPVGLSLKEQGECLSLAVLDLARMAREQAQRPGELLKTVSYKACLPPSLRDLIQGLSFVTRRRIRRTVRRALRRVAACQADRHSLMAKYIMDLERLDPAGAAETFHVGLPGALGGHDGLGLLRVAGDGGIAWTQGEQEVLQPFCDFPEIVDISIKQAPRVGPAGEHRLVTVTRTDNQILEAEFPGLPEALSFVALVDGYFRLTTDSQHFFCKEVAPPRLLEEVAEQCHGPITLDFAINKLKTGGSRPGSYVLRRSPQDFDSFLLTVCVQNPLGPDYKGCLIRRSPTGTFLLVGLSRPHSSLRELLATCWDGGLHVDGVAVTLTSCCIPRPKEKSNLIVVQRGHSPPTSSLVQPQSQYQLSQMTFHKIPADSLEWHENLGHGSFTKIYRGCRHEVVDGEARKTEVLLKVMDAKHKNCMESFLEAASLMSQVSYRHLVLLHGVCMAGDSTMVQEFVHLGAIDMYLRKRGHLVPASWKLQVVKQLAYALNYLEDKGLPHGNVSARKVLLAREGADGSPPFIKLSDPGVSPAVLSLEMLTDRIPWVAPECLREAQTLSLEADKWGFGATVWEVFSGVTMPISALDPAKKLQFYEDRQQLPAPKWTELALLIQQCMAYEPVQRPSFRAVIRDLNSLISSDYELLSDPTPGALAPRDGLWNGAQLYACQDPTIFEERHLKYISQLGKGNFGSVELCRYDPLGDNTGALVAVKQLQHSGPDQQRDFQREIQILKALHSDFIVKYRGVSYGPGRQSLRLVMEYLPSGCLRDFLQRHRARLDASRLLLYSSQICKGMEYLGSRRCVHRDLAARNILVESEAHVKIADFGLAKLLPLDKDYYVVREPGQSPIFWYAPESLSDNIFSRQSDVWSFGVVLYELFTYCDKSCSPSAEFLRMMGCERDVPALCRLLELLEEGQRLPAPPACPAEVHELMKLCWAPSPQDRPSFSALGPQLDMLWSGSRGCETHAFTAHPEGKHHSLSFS
Excerpt: (§5) Experimental Example 1: JAK1, JAK2, JAK3 and TYK2 Enzymatic Inhibition Assay

[9] = biological target: CYP3A4 (Homo sapiens (Human), UniProt P08684); assay: CYP450 enzyme test, P450-Glo screening system, CYP3A4; format: in vitro ADME
Sequence of CYP3A4 (P08684 whole entry): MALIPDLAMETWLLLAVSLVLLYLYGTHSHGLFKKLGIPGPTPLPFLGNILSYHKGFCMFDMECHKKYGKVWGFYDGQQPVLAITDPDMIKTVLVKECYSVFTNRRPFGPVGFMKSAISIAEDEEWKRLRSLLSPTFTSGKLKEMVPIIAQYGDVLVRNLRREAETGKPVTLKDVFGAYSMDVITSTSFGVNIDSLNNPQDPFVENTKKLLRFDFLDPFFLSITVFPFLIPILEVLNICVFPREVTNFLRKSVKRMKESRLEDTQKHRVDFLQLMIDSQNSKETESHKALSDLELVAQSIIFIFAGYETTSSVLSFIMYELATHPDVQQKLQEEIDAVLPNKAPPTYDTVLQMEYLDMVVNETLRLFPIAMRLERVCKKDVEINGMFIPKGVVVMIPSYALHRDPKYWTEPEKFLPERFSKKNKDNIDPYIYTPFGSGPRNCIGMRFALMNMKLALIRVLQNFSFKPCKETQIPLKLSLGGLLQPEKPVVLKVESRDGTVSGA
Excerpt: as §4

[10] = biological target: JAK2 (Homo sapiens (Human), UniProt O60674); assay: JAK2 enzymatic inhibition assay (ADP-Glo luminescence); format: biochemical
Experimental: Test Materials • JAK1, JAK2, JAK3 and TYK2 enzymes were purchased from Life Technologies; and substrate GFP-STAT1 was purchased from Life Technologies.
Test compounds, enzymes, the substrate and ATP were diluted to the desired concentrations with the assay buffer (40 mM Tris-HCl, pH 7.4, 20 mM MgCl2, 0.1% BSA). The former three were added into a multiple well plate, and incubated at room temperature after being mixed homogeneously. ATP was added to initiate the kinase reaction, and incubation at room temperature was performed. ADP-Glo was added, and incubation at room temperature was performed. The kinase detector reagent was then added, and incubation at room temperature was performed. The luminescence intensity of each test group was detected, and the half maximal inhibitory concentration (IC50) value was calculated.

[11] = biological target: CYP2D6 (Homo sapiens (Human), UniProt P10635); assay: CYP450 enzyme test, Vivid CYP2D6 Cyan screening kit; format: in vitro ADME
Sequence of CYP2D6 (P10635 whole entry): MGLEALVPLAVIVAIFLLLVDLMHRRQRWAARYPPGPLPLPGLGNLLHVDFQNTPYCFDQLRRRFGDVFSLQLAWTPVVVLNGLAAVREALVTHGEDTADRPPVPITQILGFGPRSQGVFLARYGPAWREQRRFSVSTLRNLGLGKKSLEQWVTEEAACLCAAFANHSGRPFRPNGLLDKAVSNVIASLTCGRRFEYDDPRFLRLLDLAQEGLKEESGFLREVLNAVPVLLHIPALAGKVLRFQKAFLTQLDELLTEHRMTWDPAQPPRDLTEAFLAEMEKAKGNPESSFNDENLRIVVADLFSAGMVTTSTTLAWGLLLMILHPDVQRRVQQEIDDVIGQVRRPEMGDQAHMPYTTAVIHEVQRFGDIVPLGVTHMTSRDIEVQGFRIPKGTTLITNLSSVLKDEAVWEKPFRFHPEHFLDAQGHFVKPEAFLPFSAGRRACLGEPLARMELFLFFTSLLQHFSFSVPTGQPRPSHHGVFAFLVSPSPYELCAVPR
Excerpt: as §4

[12] = biological target: TYK2 (Homo sapiens (Human), UniProt P29597); assay: TYK2 enzymatic inhibition assay (LanthaScreen TR-FRET); format: biochemical
Sequence of TYK2 (P29597 whole entry): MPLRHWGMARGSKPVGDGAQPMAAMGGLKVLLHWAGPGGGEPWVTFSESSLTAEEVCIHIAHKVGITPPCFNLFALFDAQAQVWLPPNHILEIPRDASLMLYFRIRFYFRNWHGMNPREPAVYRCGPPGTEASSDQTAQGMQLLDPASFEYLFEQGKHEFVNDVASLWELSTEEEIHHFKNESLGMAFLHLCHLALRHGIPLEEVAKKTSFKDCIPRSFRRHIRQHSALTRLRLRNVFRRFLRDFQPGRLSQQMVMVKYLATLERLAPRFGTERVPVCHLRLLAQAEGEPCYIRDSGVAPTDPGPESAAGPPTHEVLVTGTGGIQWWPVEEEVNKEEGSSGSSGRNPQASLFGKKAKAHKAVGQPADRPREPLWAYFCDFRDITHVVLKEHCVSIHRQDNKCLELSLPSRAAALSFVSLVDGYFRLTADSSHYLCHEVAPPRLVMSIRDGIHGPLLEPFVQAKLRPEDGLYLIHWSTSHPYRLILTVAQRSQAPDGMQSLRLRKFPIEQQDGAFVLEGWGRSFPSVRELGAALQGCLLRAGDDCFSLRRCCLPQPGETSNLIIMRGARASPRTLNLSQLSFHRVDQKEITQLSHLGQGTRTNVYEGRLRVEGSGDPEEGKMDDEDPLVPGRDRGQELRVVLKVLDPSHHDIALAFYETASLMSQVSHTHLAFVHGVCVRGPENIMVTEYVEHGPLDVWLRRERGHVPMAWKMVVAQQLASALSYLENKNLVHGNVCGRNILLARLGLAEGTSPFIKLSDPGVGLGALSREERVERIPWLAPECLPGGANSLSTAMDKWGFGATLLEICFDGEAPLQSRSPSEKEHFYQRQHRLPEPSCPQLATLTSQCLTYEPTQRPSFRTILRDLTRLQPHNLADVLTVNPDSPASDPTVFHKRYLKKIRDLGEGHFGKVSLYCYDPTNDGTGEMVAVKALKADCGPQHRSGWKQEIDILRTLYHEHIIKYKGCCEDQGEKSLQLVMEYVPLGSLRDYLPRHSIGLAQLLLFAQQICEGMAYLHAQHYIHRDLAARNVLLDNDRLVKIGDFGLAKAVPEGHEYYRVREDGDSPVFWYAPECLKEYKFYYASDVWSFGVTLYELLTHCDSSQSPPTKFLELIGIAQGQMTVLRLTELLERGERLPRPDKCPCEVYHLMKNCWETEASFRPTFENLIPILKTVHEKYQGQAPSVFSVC
Experimental: as §5
As for the TYK2 enzyme, Tb-anti-pSTAT1 was added, and incubation at room temperature was performed.

[13] = D0 (day before administration), 10 mg/kg group
[14] = D11, 10 mg/kg gavage once a day
[15] = D15, 10 mg/kg gavage once a day

Row | AUC(0-t) [2] [µg·h/mL] | AUC(0-t) [3] [µg·h/mL] | half-life [3] [h] | bioavailability [4] [%] | AUC(0-t) [4] [µg·h/mL] | SMILES | Mean arthritis score [1, 13] | Mean paw thickness (mm) [1, 13] [mm] | Mean paw volume [1, 13] [mL] | Mean arthritis score ([1]; D4, 10 mg/kg gavage once a day) | Mean paw thickness (mm) ([1]; D4, 10 mg/kg gavage once a day) | Mean paw volume ([1]; D4, 10 mg/kg gavage once a day) [mL] | Mean arthritis score ([1]; D7, 10 mg/kg gavage once a day) | Mean paw thickness (mm) ([1]; D7, 10 mg/kg gavage once a day) | Mean paw volume ([1]; D7, 10 mg/kg gavage once a day) [mL] | Mean arthritis score [1, 14] | Mean paw thickness (mm) [1, 14] [mm] | Mean paw volume [1, 14] [mL] | Mean arthritis score [1, 15] | Mean paw thickness (mm) [1, 15] [mm] | Mean paw volume [1, 15] [mL] | also measured
1 | 3.05 | 0.505 | 0.946 | 26.3 | 0.994 | CCS(=O)(=O)N1CC(CC#N)(n2cc(-c3ncnc4[nH]ccc34)cn2)C1 [Baricitinib, reference compound] | 3.00 | 7.17 | 1.71 | 2.25 | 6.67 | 1.55 | 1.38 | 6.47 | 1.47 | 1.75 | 6.36 | 1.48 | 1.88 | 6.21 | 1.59 | bioavailability ([2]; PO administration at 0.5-5 mg/kg, read-out: bioavailability (F %)): 55%; half-life ([2]; PO administration at 0.5-5 mg/kg, read-out: half-life (T1/2) (converted)): 1.58 h; half-life [4]: 1.96 h; half-life [5]: 1.38 h
2 | 3.15 | 0.834 | 0.997 | – | – | CCS(=O)(=O)N1CC(CC#N)(n2cc(-c3c(C#N)cnc4[nH]ccc34)cn2)C1 [Compound 5, 4-(1-(3-(cyanomethyl)-1-(ethylsulfonyl)azetidin-3-yl)-1H-pyrazol-4-yl)-1H-pyrrolo[2,3-b]pyridine-5-carbonitrile] | – | – | – | – | – | – | – | – | – | – | – | – | – | – | – | IC50 [6]: > 30 µM; IC50 [7]: > 10 µM; IC50 [8]: 33.8 nM; IC50 [9]: > 10 µM; IC50 [10]: 1.49 nM; IC50 [11]: > 10 µM; IC50 [12]: 27 nM
3 | 14.1 | 2.65 | 3.93 | 78.6 | 2.6 | CCS(=O)(=O)N1CC(CC#N)(n2cc(-c3ccnc4[nH]ccc34)cn2)C1 [Compound 8, 2-(3-(4-(1H-pyrrolo[2,3-b]pyridin-4-yl)-1H-pyrazol-1-yl)-1-(ethylsulfonyl)azetidin-3-yl)acetonitrile] | 2.63 | 7.18 | 1.71 | 1.38 | 6.04 | 1.47 | 1.00 | 5.67 | 1.41 | 1.00 | 5.56 | 1.42 | 1.13 | 5.52 | 1.48 | IC50 [6]: > 30 µM; IC50 [8]: 47.9 nM; half-life [4]: 2.68 h; IC50 [12]: 27.3 nM; half-life [5]: 5.29 h

From patent US11045455B2, “Azetidine derivative, preparation method therefor, and use thereof” (SICHUAN KELUN-BIOTECH BIOPHARMACEUTICAL CO., LTD., priority 2016, dated 2021)
